Consider one substance from paper PMC9532399, “The lysosomal transporter TAPL has a dual role as peptide translocator and phosphatidylserine floppase” (Nature Communications, 2022).

The target of assay [1] is T1, TAPL Y405A mutant (Mus musculus, UniProt Q9JJ59, Y405A).
T1 construct: thrombin cleavage site (C); eGFP (C); 10XHis (C); made in house; host or cells: Trichoplusia ni High Five (Hi5) insect cells, baculovirus (pVL1393)
T1 sequence (Q9JJ59 143-762 Y405A): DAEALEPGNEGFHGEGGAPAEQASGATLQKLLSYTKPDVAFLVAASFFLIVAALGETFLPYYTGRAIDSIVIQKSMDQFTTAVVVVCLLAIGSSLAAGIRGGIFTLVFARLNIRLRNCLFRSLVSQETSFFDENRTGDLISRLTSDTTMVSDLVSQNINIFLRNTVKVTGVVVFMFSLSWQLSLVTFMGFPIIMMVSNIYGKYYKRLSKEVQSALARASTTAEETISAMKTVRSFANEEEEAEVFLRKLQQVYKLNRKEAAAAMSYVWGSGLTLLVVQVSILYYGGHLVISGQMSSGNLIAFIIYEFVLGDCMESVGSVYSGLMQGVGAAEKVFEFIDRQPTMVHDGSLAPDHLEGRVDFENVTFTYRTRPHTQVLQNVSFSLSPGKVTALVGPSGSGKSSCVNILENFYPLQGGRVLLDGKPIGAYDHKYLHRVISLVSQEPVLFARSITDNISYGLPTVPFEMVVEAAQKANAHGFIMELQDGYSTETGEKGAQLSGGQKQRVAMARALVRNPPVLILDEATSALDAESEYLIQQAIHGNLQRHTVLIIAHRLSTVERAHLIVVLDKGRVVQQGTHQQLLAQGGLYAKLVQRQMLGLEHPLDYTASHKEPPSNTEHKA
Briefly: Peptide transport assay, Y405A. The note with it: 9-mer 10 mM (sic), 3 mM ATP. In kind it is biochemical. Here is the method:
(§1) Proteoliposomes for peptide transport assays were prepared according to the protocol of Zhao et al., with some modifications. Briefly, E. coli polar lipid extract dissolved in chloroform was dried under a gentle stream of nitrogen. The thin film of lipids was placed under a desiccator overnight to completely remove residual chloroform and then hydrated in 1X PBS buffer pH 7.4 (137 mM NaCl, 2.7 mM KCl, 8 mM Na2HPO4, and 2 mM KH2PO4) with 10 mM MgCl2 and 5% (v/v) glycerol. After water bath sonication at 22 °C for 5 min (Powersonic 610, KLEENTEK), the lipid solution was extruded using a Mini-Extruder equipped with a polycarbonate membrane filter (200 nm pore) (Avanti Polar Lipids, Inc.) to obtain unilamellar vesicles, which were destabilized with 0.36% (w/v) DM. The DM-purified protein and lipid suspension were mixed in a 1:50 (w/w) ratio. After incubation at 4 °C for 2 h, the mixture was treated with Bio-Beads SM-2 resin (60 and 120 mg, see above) at 4 °C for a total of 18 h to remove detergent. The proteoliposomes were collected by centrifugation at 200,000×g for 1.5 h at 4 °C and resuspended in the buffer described above.
(§2) The peptide transport activity of ΔTMD0 was measured as described previously. Briefly, 50 μL of ΔTMD0-loaded proteoliposomes (~0.6 μg protein) were added into 200 μL reaction buffer containing 1X PBS pH 7.4, 3 mM ATP, and 10 mM MgCl2 in the presence or absence of 10 μM 5-IAF-labeled peptides. To investigate transport activity, the mixture was incubated at 37 °C for 10 min. The reaction was terminated by incubating the mixture for 20 min on ice. Proteoliposomes were collected by centrifugation at 200,000×g for 30 min and then washed twice with 1X PBS. The proteoliposomes were completely disrupted by adding 10% (w/v) SDS solution (final concentration, 2%). The transported peptide was measured using a microplate reader (Gemini XPS) with excitation at 485 nm and emission at 520 nm.

For assay [2], the system named is TAPL N301A mutant. Briefly: Peptide transport assay, N301A. In kind it is biochemical, mouse. The note with it: 9-mer 10 mM (sic), 3 mM ATP. Here is the method:
as §1, §2

With “RRYQNSTC^5-IAFL [9-mer, 5-IAF-labeled peptide of 9 residues (RRYQNSTC^5-IAFL)]”, the Transport activity came out at 18.1424% in assay [1] (replicate I); 19.1407% in assay [1] (replicate II); 12.1153% in assay [1] (replicate III); 16.4661% in assay [1] (wild-type = 100%, mean n=3); 112.671% in assay [2] (replicate I); 153.066% in assay [2] (replicate II). Further, the Transport activity in assay [2] (replicate III) is recorded as 131.453%; in assay [2] (wild-type = 100%, mean n=3), 132.396%.
